Columns and labels:
[1] = tested on: Nrf2 (NQO1 activity in BEAS-2B cells); assay: BEAS-2B NQO1 MTT Assay; assay type: cell-based; settings: Homo sapiens, 48 hours, NQO1 specific activity induction, read-out: EC50
Description: NAD(P)H:quinone oxidoreductase 1 (NQO1), also called DT diaphorase, is a homodimeric FAD-containing enzyme that catalyzes obligatory NAD(P)H-dependent two-electron reductions of quinones and protects cells against the toxic and neoplastic effects of free radicals and reactive oxygen species arising from one-electron reductions. The transcription of NQO1 is finely regulated by Nrf2, and thus NQO1 activity is a good marker for Nrf2 activation. On day one, frozen BEAS-2B cells (ATCC) were thawed in a water bath, counted, and re-suspended at a concentration of 250,000 cells/mL. Fifty microliters of cells were plated in 384 well black clear-bottomed plates. Plates were incubated at 37° C., 5% CO2 overnight. On day two, plates were centrifuged and 50 nL of compound or controls were added to the cells. Plates were then incubated at 37° C., 5% CO2 for 48 hours. On day four, medium was aspirated from the plate and crude cell lysates were made by adding 13 μL of 1× Cell Signalling Technologies lysis buffer with 1 Complete, Mini, EDTA-free Protease Inhibitor Tablet (Roche) for each 10 mL of lysis buffer. After lysis plates were incubated for 20 minutes at room temperature. Two microliters of lysate were removed for use in Cell Titer Glo assay (Promega) and MTT cocktail was prepared (Prochaska et. al. 1998) for measurement of NQO1 activity. Fifty microliters of MTT cocktail was added to each well, plate was centrifuged, and analyzed on an Envision plate reader (Perkin Elmer) using Absorbance 570 nm label for 30 minutes. Product formation was measured kinetically and the pEC50 of NQO1 specific activity induction was calculated by plotting the change in absorbance (Delta OD/min) versus the log of compound concentration followed by 3-parameter fitting.
EC50s<1 nM (+++++), EC50s 1 nM-10 nM (++++), EC50s 10 nM-100 nM (+++), EC50s 100 nM-1 μM (++), EC50s 1 μM-10 μM (+).

murine TAC model = assay: Mouse Transverse Aortic Constriction (TAC) Left Ventricular Pressure Overload Model; assay type: in vivo, C57BLK/6J mice; settings: 10-week mouse TAC, Example 1 at 1, 3, 10 mg/kg/d, Example B at 100 mg/kg/d
Description: Male C57BLK/6J mice (10-12 weeks old) were individually housed and acclimated to a standard powdered rodent diet for 1-3 days. Water was offered ad libitum throughout the study. Mice were initially anesthetized in a chamber using an 3% isoflurane with oxygen (1.0 L/min), and then maintained at 1.5% via nose cone (without intubation). A small incision (˜5 mm) was made just left of midline and just above the rib cage at the level of the suprasternal notch. The muscle tissue was retracted to expose the area above the pleural cavity. The lobes of the thymus were separated and retracted to expose the aortic arch. Fine surgical forceps with blunted tips were used to expose a region above and below the aorta. A micro blunt hook tied with 7-0 silk surgical suture was looped under the aorta and the suture pulled through. The suture was tied-off against a small piece of blunted 27 G needle and the needle was then removed creating the aortic constriction (a 60-70% constriction of the lumen). The incision was closed using 6-0 silk suture for the muscle layer, then the skin with Medbond. The sham procedure was identical without ligation of aorta. Depending on the individual study designs, drug administration began either on the day of surgery, or 1-2 weeks after surgery (detailed in figure legends) and continued until the end of study. Compounds were administered in the mouse chow unless otherwise noted in FIG. 12 legends. TAC study duration was either 6 weeks or 10 weeks in duration. All TAC study endpoints were collected at the end of study. Following heart dissections, samples were either snap frozen in liquid nitrogen and stored at −80° C. or placed in 10% neutral buffered formalin until analysis.
Echocardiography: For mouse TAC studies, echocardiography was performed on a Vevo 2100 high frequency imaging system. Animals were anesthetized with 2-3% isoflurane and sedation maintained with 1% isoflurane with animals on a heating pad. B-mode imaging of three cardiac cycles was used to assess ejection fraction (EF), end diastolic volume (EDV), end systolic volume (ESV), LV mass, and heart rate. ECG was used to measure heart rate during the echocardiography procedure.
NADPH dehydrogenase [quinone]-1 (NQO1) activity: Left ventricular (LV) tissue NQO1 activity was determined using an NQO1 assay kit per manufacturer's protocol (Abcam, Cambridge MA)
The KEAP1 blockers/Nrf2 activators, (R)-3-(1,4-dimethyl-1H-benzo[d][1,2,3]triazol-5-yl)-3-(3-(((R)-2-ethyl-7-hydroxy-2,3-dihydropyrido[2,3-f][1,4]oxazepin-4(5H)-yl)methyl)-4-methylphenyl)propanoic acid, hydrochloride, or a tautomer thereof (Example 1) (in dose-response) and (S)-3-(1,4-dimethyl-1H-benzo[d][1,2,3]triazol-5-yl)-3-(3-(((R)-2-ethyl-2,3-dihydropyrido[3,4-f][1,4]oxazepin-4(5H)-yl)methyl)-4-methylphenyl)-2,2-dimethylpropanoic acid (Example B) were evaluated in a 10-week mouse TAC model of severe hemodynamic stress.
FIG. 12 depicts the effect of the KEAP1-kelch domain blockers/Nrf2 activators (R)-3-(1,4-dimethyl-1H-benzo[d][1,2,3]triazol-5-yl)-3-(3-(((R)-2-ethyl-7-hydroxy-2,3-dihydropyrido[2,3-f][1,4]oxazepin-4(5H)-yl)methyl)-4-methylphenyl)propanoic acid, hydrochloride, or a tautomer thereof (Compound of Example 1) and (S)-3-(1,4-dimethyl-1H-benzo[d][1,2,3]triazol-5-yl)-3-(3-(((R)-2-ethyl-2,3-dihydropyrido[3,4-f][1,4]oxazepin-4(5H)-yl)methyl)-4-methylphenyl)-2,2-dimethylpropanoic acid (Compound B) on cardiac function, remodeling, and NQO1 enzyme activity in the murine 10-week TAC model. All compounds were dosed in chow beginning 2-weeks after TAC. […]

Cc1ccc([C@@H](c2ccc3c(nnn3C)c2C)C(C)(C)C(=O)O)cc1CN1Cc2nc(O)ccc2O[C@@H](C)C1 [Example 23, (S)-3-(1,4-dimethyl-1H-benzo[d][1,2,3]triazol-5-yl)-3-(3-(((S)-7-hydroxy-2-methyl-2,3-dihydropyrido[2,3-f][1,4]oxazepin-4(5H)-yl)methyl)-4-methylphenyl)-2,2-dimethylpropanoic acid]
EC50 [1]: 10 to 100 nM

Cc1ccc([C@@H](c2ccc3c(nnn3C)c2C)C(C)(C)C(=O)O)cc1CN1CCOc2ccc(O)nc2C1 [Example 24, (S)-3-(1,4-dimethyl-1H-benzo[d][1,2,3]triazol-5-yl)-3-(3-((7-hydroxy-2,3-dihydropyrido[2,3-f][1,4]oxazepin-4(5H)-yl)methyl)-4-methylphenyl)-2,2-dimethylpropanoic acid]
EC50 [1]: 10 to 100 nM

Cc1ccc([C@H](CC(=O)O)c2ccc3c(nnn3C)c2C)cc1CN1Cc2nc(O)ccc2O[C@H](C(F)(F)F)C1 [Example 25, (S)-3-(1,4-dimethyl-1H-benzo[d][1,2,3]triazol-5-yl)-3-(3-(((S)-7-hydroxy-2-(trifluoromethyl)-2,3-dihydropyrido[2,3-f][1,4]oxazepin-4(5H)-yl)methyl)-4-methylphenyl)propanoic acid]
EC50 [1]: 10 to 100 nM

CC[C@]1(C)CN(Cc2cc([C@@H](CC(=O)O)c3ccc4c(nnn4C)c3C)ccc2C)Cc2nc(O)ccc2O1 [Example 26, (R)-3-(1,4-dimethyl-1H-benzo[d][1,2,3]triazol-5-yl)-3-(3-(((R)-2-ethyl-7-hydroxy-2-methyl-2,3-dihydropyrido[2,3-f][1,4]oxazepin-4(5H)-yl)methyl)-4-methylphenyl)propanonic acid]
EC50 [1]: 100 to 1000 nM

CC[C@@]1(C)CN(Cc2cc([C@@H](CC(=O)O)c3ccc4c(nnn4C)c3C)ccc2C)Cc2nc(O)ccc2O1 [Example 27, (R)-3-(1,4-dimethyl-1H-benzo[d][1,2,3]triazol-5-yl)-3-(3-(((S)-2-ethyl-7-hydroxy-2-methyl-2,3-dihydropyrido[2,3-f][1,4]oxazepin-4(5H)-yl)methyl)-4-methylphenyl)propanonic acid]
EC50 [1]: 10 to 100 nM

Cc1ccc([C@H](CC(=O)O)c2ccc3c(nnn3C)c2C)cc1CN1Cc2nc(O)ccc2O[C@@H](C(F)(F)F)C1 [Example 28, (S)-3-(1,4-dimethyl-1H-benzo[d][1,2,3]triazol-5-yl)-3-(3-(((R)-7-hydroxy-2-(trifluoromethyl)-2,3-dihydropyrido[2,3-f][1,4]oxazepin-4(5H)-yl)methyl)-4-methylphenyl)propanoic acid]
EC50 [1]: 1000 to 10000 nM

Cc1ccc([C@@H](CC(=O)O)c2ccc3c(nnn3C)c2C)cc1CN1Cc2nc(O)ccc2OC2(CCC2)C1 [Example 29]
EC50 [1]: 10 to 100 nM

Cc1ccc([C@@H](CC(=O)O)c2ccc3c(nnn3C)c2C)cc1CN1Cc2nc(O)ccc2O[C@H](C(C)(C)C)C1 [Example 30, (R)-3-(3-(((R)-2-(tert-butyl)-7-hydroxy-2,3-dihydropyrido[2,3-f][1,4]oxazepin-4(5H)-yl)methyl)-4-methylphenyl)-3-(1,4-dimethyl-1H-benzo[d][1,2,3]triazol-5-yl)propanoic acid]
EC50 [1]: 10 to 100 nM

CC[C@@H]1CN(Cc2cc([C@@H](c3ccc4c(nnn4C)c3C)C(C)(C)C(=O)O)ccc2C)Cc2cnccc2O1 [Example B, (S)-3-(1,4-dimethyl-1H-benzo[d][1,2,3]triazol-5-yl)-3-(3-(((R)-2-ethyl-2,3-dihydropyrido[3,4-f][1,4]oxazepin-4(5H)-yl)methyl)-4-methylphenyl)-2,2-dimethylpropanoic acid, reference compound]
cardiac function as assessed by ejection fraction (murine TAC model; daily in chow for eight weeks from 2 weeks after TAC): full normalization of cardiac function | NAD(P)H quinone oxidoreductase 1 (NQO1) in the LV (murine TAC model; daily in chow for eight weeks): significant dose-related elevations | cardiac hypertrophy (left ventricular mass) (murine TAC model; daily in chow for eight weeks): did not influence cardiac hypertrophy | unloading the heart (blood pressure) or heart rate (murine TAC model; daily in chow for eight weeks): nor did the ejection fraction change occur by unloading the heart (i.e., lowering blood pressure) or increasing the heart rate
